Laboratory results as given in US9260461B2, “Water-soluble derivatives and prodrugs of acacetin and methods of making and using thereof” (Versitech Limited, priority 2014, dated 2016).
Converted amounts (≈) assume the structure as drawn.

Experiments:
[1] = Solubility of the purified prodrugs versus parent compound acacetin; format: physicochemical; settings: aqueous buffer; Tris solution, pH=7.0; read-out: solubility in Tris solution
Source text: Prodrug B: Light yellow solid. Yield 54%. C16H11O7PNa2 (408.21). EI-MS: m/z 387.04 [M+H—Na]^+. ^1H NMR (400 MHz, DMSO-d6): δ=12.90 (s, 1H), 8.04 (d, J=8.8 Hz, 2H), 7.10 (d, J=8.8 Hz, 2H), 7.02 (s, 1H), 6.98 (s, 1H), 6.60 (s, 1H), 3.89 (s, 3H) ppm.

[2] = biological target: T1, Kv4.3 current (hKv4.3 gene expressed in HEK 293 cells) (Homo sapiens, UniProt Q9UK17); assay: Whole-cell patch-clamp, Kv4.3 current in HEK 293 cells; format: cell-based; settings: 30 μM, representative cells
T1 construct: expressed in transfected cells
T1 sequence (Q9UK17 1-655): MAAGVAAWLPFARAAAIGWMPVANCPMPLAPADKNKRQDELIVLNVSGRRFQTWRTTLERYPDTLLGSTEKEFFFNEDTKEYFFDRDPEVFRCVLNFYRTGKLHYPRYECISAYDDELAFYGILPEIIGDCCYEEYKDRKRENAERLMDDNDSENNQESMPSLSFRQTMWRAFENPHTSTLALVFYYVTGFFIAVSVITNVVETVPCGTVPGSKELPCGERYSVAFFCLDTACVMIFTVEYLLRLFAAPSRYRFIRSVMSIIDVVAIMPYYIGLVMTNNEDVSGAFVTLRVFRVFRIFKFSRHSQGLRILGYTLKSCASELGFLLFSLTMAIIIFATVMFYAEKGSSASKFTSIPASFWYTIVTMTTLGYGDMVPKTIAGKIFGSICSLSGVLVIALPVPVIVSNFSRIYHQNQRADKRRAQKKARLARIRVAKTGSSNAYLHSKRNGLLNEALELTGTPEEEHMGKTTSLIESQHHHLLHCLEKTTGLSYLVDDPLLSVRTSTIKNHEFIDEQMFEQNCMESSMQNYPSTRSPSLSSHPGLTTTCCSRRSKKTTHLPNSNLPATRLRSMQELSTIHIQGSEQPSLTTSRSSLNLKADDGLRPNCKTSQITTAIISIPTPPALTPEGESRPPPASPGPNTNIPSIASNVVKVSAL
Description: (§1) HEK 293 cell line stably expressing the hKV1.5 gene (Wu et al., 2011) or hKv4.3 gene (Wu et al., 2013) was maintained in Dulbecco's modified eagle's medium (DMEM, Invitrogen, Hong Kong) supplemented with 10% fetal bovine serum and 400 μg/mL G418 in a 5% CO2 incubator. Cells were seeded on a glass cover slip for electrophysiology recording.
(§2) Ionic currents in HEK 293 cell lines and rat atrial myocytes were measured by the standard whole-cell patch-clamp technique using a standard pipette and bath solution with an EPC-10 amplifier and Pulse software (HEKA, Lambrecht, Germany). A 3M KCl-agar salt bridge was used as the reference electrode. The current signal was sampled at 5 kHz, recorded and stored in the hard disk of an IBM compatible computer. All experiments were conducted at room temperature (22-23° C.).
(§3) However, Kv1.5 current (FIG. 3D), Kv4.3 current (FIG. 3E) or IKACh (FIG. 3F) was inhibited by 10 μM acacetin in representative cells consistent with experimental reports.

[3] = biological target: T2, Kv1.5 current (hKV1.5 gene expressed in HEK 293 cells) (Homo sapiens, UniProt P22460); assay: Whole-cell patch-clamp, Kv1.5 current in HEK 293 cells; format: cell-based; settings: 30 μM, representative cells
T2 construct: expressed in transfected cells
Description: as §1, §2, §3

[4] = tested on: myocardial infarction induced by ischemia-reperfusion; assay: Ventricular infarct area (TTC staining) in anesthetized rats with ischemia-reperfusion; format: in vivo; settings: 10 mg/kg i.v.; n=4, P<0.01 vs vehicle
[5] = tested on: ventricular arrhythmias induced by ischemia-reperfusion injury; assay: Ischemia-reperfusion model in anesthetized rats (ventricular arrhythmias, heart rate, left ventricular contractile function); format: in vivo, Sprague-Dawley (SD) rats; settings: for incidence of severe ventricular fibrillation: 90% in vehicle, P<0.05
Description: Adult male Sprague-Dawley (SD) rats (250-300 g) were anesthetized with pentobarbital (30 mg/kg i.p.), supplemented during the experiment when needed. The animal was intubated and ventilated. Body temperature was maintained at 37° C. with a temperature control system. The jugular vein was cannulated for drug administration and a plastic tubing (0.8 mm OD) was introduced into the left ventricle through the […] to measure the contractile function (e.g. left ventricular pressure). The left chest was opened under ventilation to expose the coronary artery. A fine silk was introduced at the upper ⅓ left anterior coronary descending artery (LA). After a 10-min stabilization period, the drug at 5, 10, or 20 mg/kg was intravenously administrated respectively in 5 min, and an equal volume (1 mL/kg) of vehicle was administrated for the control. LAD was then ligated for 10 min followed a 30-min reperfusion. ECG and blood pressure signals were continuously monitored and stored on an IBM compatible PC computer using a multiple channels data acquisition system (RM-6280C, Chengdu Instrument Ltd, Chendu, China) to record the incidence of ventricular arrhythmia (i.e. fibrillation, tachycardia, and premature beats) and […].
To investigate the effects of water-soluble Prodrug A on ventricular arrhythmias induced by ischemia-reperfusion injury, the in vivo ischemia-reperfusion model was established in SD rats. In this model, the animal, ventricular arrhythmias, including premature ventricular beats (PVBs), and ventricular tachycardia (VT), were developed with 10 min ischemia (ligation of coronary anterior descending artery) followed by […]. Ventricular fibrillation was frequently observed during the early reperfusion in the control animal with intravenous vehicle (FIG. 1A), but not in the animal treated with intravenous Prodrug A (10 mg/kg for 5 min, FIG. 1B). Prodrug A at 5 mg, 10, and 20 mg/kg decreased arrhythmia score (FIG. 1C) and arrhythmia duration in a dose-dependent manner (P<0.05 or P<0.01 vs. vehicle).
In addition to the anti-ventricular fibrillation, Prodrug A prevented heart rate reduction (FIG. 2A), and improved the decreased function contractile function including left ventricular systolic pressure (FIG. 2B), development pressure (FIG. 2C), and +dP/dT (FIG. 2D) induced by ischemia and/or reperfusion injury in a dose-dependent manner (P<0.05 or P<0.01 vs. vehicle).

[6] = 10 mg and 20 mg/kg, before ligation
[7] = 5, 10 and 20 mg/kg i.v., dose-dependent, P<0.05 or P<0.01 vs. vehicle
[8] = i.v., dose-dependent, P<0.05 or P<0.01 vs. vehicle

T2 sequence (P22460 whole entry): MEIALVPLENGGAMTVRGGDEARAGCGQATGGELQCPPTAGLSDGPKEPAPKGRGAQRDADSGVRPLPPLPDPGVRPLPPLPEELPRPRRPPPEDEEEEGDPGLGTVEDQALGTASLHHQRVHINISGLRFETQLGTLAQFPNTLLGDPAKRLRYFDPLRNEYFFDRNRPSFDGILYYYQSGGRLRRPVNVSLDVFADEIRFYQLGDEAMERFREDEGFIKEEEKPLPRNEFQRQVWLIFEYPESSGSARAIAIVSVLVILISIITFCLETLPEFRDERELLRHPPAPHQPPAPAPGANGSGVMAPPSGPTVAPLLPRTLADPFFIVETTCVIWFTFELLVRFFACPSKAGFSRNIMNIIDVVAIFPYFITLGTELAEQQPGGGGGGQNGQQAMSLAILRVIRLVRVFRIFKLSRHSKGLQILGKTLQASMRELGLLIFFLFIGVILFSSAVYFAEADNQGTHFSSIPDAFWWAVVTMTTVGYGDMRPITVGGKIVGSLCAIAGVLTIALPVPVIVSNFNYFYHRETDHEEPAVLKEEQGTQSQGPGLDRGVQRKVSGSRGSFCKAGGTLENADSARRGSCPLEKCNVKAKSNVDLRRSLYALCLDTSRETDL

Compound: COc1ccc(-c2cc(=O)c3c(O)cc(OP(=O)(O)O)cc3o2)cc1 [Prodrug A]
- solubility [1]: 10000 µg/mL (≈ 27.5 mM)
- effect on Kv4.3 current [2]: no inhibitory effect
- effect on Kv1.5 current [3]: no inhibitory effect
- ventricular infarct area [4]: reduced
- heart rate before coronary artery ligation [5, 6]: without affecting
- left ventricular development pressure before coronary artery ligation [5, 6]: slightly but significantly increased
- left ventricular systolic pressure before coronary artery ligation [5, 6]: slightly but significantly increased
- incidence of severe ventricular fibrillation ([5]; 10 mg/kg i.v.): 30%
- incidence of severe ventricular fibrillation ([5]; 20 mg/kg i.v.): 20%
- arrhythmia duration [5, 7]: decreased
- arrhythmia score [5, 7]: decreased
- decreased +dP/dT induced by ischemia and/or reperfusion injury [5, 8]: improved
- decreased left ventricular development pressure induced by ischemia and/or reperfusion injury [5, 8]: improved
- decreased left ventricular systolic pressure induced by ischemia and/or reperfusion injury [5, 8]: improved
- heart rate reduction induced by ischemia and/or reperfusion injury [5, 8]: prevented
